Test [1] relates to DBA/2J mice. The experiment in a line: DOI-dependent head twitch response inhibition. In kind it is in vivo, mouse. Conditions: male DBA/2J mice, 10 mg/kg i.p., DOI 5 mg/kg, 30 min. From the text: First, we have previously published that D3 receptor selective compounds could attenuate a hallucinogen-dependent head twitch response (HTR) in male DBA/2J mice. […] Second, we previously reported that D3 vs. D2 dopamine receptor subtype selective ligands could attenuate L-dopa dependent abnormal involuntary movement (AIM) scores in unilaterally lesioned (hemiparkinsonian) male rats, which is a model for L-dopa-Induced Dyskinesia (LID).
Upon arrival DBA/2J mice (Jackson Labs) were allowed to acclimate for at least one week prior to testing. Mice were housed at ≤4 animals per cage with unlimited access to food and fresh water. The protocol for the HTR assessment has been previously reported. […]
However, a head twitch was defined as a rapid movement of the head, without the involvement of the front paws during grooming. […] At least two observers counted the number of head twitches by visual examination and the number of head twitches was recorded in 5-min cumulative intervals. […]
The effect of Group was assessed using two-way analysis of variance (ANOVA) with Time as the repeated measure. The data was further analyzed at each time point with a one-way ANOVA with Group as the factor followed by planned individual comparisons between different groups using a single degree-of-freedom F test involving the error term from the overall ANOVA when the Time and Group interaction was significant. […]

The target of test [2] is D1 dopamine receptor (Homo sapiens, UniProt P21728). The test can be described thus: PDSP off-target binding. Conditions: in words. From the text: (§1) Further evaluation of the off-target binding of compound 6a was provided by the Psychoactive Drug Screening Program (PDSP) for a range of receptors including serotonin receptor subtypes, α-adrenergic receptor subtypes, β-adrenergic receptor subtypes, histaminergic receptor subtypes, muscarinic receptor subtypes, opioid receptor subtypes and the two sigma receptor subtypes.
Sequence of D1 dopamine receptor (P21728 whole entry): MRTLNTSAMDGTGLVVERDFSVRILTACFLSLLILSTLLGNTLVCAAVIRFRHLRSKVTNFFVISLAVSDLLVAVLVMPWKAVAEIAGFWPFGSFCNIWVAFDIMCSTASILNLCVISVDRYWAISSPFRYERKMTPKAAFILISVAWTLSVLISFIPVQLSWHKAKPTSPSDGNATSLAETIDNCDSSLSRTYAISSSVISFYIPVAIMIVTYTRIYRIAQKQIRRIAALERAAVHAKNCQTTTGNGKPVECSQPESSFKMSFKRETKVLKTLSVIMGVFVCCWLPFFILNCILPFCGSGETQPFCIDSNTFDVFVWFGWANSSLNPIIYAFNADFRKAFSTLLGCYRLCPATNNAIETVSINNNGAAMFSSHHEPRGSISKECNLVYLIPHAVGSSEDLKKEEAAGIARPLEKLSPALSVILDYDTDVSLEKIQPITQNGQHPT

The target of test [3] is D4 dopamine receptor (Homo sapiens, UniProt P21917). The test can be described thus: PDSP off-target binding. Conditions: read-out: binding affinity D4 (PDSP).
Sequence of D4 dopamine receptor (P21917 whole entry): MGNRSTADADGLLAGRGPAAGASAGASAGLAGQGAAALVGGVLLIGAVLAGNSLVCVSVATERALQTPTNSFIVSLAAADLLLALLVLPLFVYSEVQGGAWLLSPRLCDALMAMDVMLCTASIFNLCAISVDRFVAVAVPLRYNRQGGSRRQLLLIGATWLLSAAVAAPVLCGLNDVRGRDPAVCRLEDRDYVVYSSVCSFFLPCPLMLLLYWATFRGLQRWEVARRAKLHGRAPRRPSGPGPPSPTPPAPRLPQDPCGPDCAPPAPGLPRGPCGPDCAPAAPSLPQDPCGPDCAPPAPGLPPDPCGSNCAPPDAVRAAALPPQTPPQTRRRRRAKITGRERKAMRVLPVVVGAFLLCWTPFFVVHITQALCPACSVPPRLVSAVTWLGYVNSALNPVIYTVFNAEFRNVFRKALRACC
Source text: as §1

In test [4] the target is dopamine transporter (DAT) (Homo sapiens, UniProt Q01959). The test can be described thus: PDSP off-target binding. The note with it: read-out: binding affinity DAT (PDSP).
Sequence of dopamine transporter (DAT) (Q01959 whole entry, species assumed): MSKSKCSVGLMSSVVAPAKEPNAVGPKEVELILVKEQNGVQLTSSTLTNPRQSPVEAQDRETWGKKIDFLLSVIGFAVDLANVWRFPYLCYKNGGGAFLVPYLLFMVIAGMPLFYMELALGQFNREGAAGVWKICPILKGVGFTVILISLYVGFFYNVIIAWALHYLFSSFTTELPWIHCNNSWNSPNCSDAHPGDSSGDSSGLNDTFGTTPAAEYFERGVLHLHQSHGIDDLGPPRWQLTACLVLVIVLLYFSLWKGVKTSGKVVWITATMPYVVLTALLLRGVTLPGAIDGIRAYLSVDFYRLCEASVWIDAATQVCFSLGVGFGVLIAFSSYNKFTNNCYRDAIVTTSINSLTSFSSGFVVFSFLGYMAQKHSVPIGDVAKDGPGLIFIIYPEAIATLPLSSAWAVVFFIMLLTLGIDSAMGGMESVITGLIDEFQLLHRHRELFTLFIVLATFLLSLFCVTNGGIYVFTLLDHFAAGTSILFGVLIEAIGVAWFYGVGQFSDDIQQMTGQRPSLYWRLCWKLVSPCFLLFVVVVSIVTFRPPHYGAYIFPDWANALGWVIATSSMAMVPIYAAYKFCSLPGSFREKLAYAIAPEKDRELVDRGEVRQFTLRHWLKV
Source text: as §1

For test [5], the target named is norepinephrine transporter (NET) (Homo sapiens, UniProt P23975). The test can be described thus: PDSP off-target binding. The note with it: read-out: binding affinity NET (PDSP).
Source text: as §1

Test [6] addresses serotonin transporter (SERT) (Homo sapiens, UniProt P31645). The experiment in a line: PDSP off-target binding. Conditions: read-out: binding affinity SERT (PDSP).
Source text: as §1

Test [7] deals with sigma-2 receptor (Homo sapiens, UniProt Q5BJF2). The test can be described thus: PDSP off-target binding. Conditions: read-out: binding affinity sigma-2 (PDSP).
Sequence of sigma-2 receptor (Q5BJF2 whole entry, species assumed): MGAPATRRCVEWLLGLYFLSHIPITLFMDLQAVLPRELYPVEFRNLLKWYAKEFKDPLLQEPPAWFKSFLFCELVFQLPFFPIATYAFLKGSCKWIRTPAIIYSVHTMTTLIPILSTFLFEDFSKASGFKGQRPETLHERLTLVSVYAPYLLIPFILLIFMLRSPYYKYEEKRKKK
Source text: as §1

The target in test [8] is α1a adrenergic receptor (Homo sapiens, UniProt P35348). The experiment in a line: PDSP off-target binding. The note with it: read-out: binding affinity α1a (PDSP).
Sequence of α1a adrenergic receptor (P35348 whole entry): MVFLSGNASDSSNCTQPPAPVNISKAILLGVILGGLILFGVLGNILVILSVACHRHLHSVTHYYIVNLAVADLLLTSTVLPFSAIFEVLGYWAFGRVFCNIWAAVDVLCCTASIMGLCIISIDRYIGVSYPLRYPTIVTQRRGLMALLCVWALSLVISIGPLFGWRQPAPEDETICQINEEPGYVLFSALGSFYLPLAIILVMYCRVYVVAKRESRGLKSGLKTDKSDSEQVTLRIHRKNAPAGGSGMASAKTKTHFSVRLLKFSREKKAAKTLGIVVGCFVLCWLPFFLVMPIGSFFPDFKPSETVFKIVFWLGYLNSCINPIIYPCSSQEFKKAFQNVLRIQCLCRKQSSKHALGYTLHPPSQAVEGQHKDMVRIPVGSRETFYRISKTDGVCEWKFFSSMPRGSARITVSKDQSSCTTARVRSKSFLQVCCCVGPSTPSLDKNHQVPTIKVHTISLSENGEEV
Source text: as §1

In test [9] the target is α1b adrenergic receptor (Homo sapiens, UniProt P35368). The experiment in a line: PDSP off-target binding. The note with it: read-out: binding affinity α1b (PDSP).
Sequence of α1b adrenergic receptor (P35368 whole entry): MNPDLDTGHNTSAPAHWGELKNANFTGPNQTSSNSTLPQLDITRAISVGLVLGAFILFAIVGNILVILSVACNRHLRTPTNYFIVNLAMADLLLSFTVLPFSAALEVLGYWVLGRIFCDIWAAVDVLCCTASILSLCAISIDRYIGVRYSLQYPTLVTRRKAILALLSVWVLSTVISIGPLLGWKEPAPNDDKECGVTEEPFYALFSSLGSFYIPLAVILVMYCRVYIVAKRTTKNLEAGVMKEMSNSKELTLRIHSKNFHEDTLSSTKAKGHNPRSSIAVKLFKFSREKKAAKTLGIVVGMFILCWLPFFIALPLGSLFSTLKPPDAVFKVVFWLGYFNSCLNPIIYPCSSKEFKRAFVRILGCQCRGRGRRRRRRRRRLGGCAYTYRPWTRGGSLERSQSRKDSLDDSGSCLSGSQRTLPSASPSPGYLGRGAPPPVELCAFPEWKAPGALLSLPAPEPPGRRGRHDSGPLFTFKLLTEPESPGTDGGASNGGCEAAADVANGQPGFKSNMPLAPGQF
Source text: as §1

Test [10] deals with α1d adrenergic receptor (Homo sapiens, UniProt P25100). The experiment in a line: PDSP off-target binding. The note with it: read-out: binding affinity α1d (PDSP).
Sequence of α1d adrenergic receptor (P25100 whole entry): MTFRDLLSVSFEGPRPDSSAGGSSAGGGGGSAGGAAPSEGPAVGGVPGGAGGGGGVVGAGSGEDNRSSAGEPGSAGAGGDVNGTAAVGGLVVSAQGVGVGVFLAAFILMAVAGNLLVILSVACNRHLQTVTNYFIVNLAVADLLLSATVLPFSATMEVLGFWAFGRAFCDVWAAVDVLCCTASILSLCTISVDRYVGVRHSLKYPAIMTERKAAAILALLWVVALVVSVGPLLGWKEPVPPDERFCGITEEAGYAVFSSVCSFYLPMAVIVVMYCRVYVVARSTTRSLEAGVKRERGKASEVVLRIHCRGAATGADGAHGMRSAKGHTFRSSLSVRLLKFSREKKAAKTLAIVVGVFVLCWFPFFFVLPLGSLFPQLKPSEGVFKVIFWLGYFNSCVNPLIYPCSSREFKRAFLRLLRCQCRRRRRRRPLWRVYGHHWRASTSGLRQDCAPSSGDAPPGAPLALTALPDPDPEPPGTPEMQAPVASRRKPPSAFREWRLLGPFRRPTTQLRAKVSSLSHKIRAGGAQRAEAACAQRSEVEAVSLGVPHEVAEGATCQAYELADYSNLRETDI
Source text: as §1

Test [11] deals with α2c adrenergic receptor (Homo sapiens, UniProt P18825). The experiment in a line: PDSP off-target binding. The note with it: read-out: binding affinity α2c (PDSP).
Sequence of α2c adrenergic receptor (P18825 whole entry): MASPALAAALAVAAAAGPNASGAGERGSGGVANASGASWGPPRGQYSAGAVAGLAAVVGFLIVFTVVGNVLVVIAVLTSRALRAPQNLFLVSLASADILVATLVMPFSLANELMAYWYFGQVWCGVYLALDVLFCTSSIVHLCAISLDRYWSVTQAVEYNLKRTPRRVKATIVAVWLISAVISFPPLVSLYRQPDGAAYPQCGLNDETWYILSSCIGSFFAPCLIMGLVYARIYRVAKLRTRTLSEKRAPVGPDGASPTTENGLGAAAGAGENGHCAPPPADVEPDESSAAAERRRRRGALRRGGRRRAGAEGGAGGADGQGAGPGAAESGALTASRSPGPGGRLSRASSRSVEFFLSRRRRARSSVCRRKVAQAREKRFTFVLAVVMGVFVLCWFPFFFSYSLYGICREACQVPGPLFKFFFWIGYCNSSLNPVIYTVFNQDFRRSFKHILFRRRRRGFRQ
Source text: as §1

The target in test [12] is D3 dopamine receptor (Homo sapiens, UniProt P35462). The experiment in a line: β-arrestin binding assay (DiscoverX PathHunter, DRD3-U2OS cells). In kind it is cell-based. Also noted: host or cells: U2OS (PathHunter eXpress DRD3-U2OS). The note with it: human D3, test compound at 10x Ki, normalized to quinpirole. On the procedure:
Quinpirole was used as a reference prototypic full agonist and haloperidol was used as a reference prototypic antagonist.
The β-arrestin binding assay was performed using a DiscoverX Pathhunter® kit according to the manufacturer’s instructions. PathHunter® eXpress β-Arrestin GPCR cells are engineered to co-express the ProLink™ (PK) tagged GPCR and the Enzyme Acceptor (EA) tagged β-Arrestin. Activation of the GPCR-PK induces β-Arrestin-EA recruitment, forcing complementation of the two β-galactosidase enzyme fragments (EA and PK). The resulting functional enzyme hydrolyzes substrate to generate a chemiluminescent signal. DRD3-U2OS cells were seeded according to kit instructions into white plastic 96-well plates (provided with the kit) 48 h prior to the assay in a volume of 100 μL/well using the Cell Plating Reagent (CPR) provided. Vehicle or test drug, diluted in CPR, was added to the designated wells and incubated for 90 min at 37 °C. Working detection solution (a component provided with the kit) was added to the wells and incubated for 1 h in the dark at room temperature. As discussed for the cyclase assay, an Enspire Alpha 2390 Multilabel Reader/Luminometer was used to detect the luminescent signal with haloperidol and quinpirole used as reference antagonist and full agonist, respectively.
Figure 3 Comparison of the Efficacy of Phenylthiophene Analogs for Adenylyl Cyclase Inhibition and β-Arrestin Binding at Human D3 Dopamine Receptors. […] Values were normalized to reference full agonist quinpirole (10,000 nM).

pKi: −log10 of the molar value. A value given as a limit tells only on which side of the number the result lay.

Sequence of serotonin transporter (SERT) (P31645 whole entry, species assumed): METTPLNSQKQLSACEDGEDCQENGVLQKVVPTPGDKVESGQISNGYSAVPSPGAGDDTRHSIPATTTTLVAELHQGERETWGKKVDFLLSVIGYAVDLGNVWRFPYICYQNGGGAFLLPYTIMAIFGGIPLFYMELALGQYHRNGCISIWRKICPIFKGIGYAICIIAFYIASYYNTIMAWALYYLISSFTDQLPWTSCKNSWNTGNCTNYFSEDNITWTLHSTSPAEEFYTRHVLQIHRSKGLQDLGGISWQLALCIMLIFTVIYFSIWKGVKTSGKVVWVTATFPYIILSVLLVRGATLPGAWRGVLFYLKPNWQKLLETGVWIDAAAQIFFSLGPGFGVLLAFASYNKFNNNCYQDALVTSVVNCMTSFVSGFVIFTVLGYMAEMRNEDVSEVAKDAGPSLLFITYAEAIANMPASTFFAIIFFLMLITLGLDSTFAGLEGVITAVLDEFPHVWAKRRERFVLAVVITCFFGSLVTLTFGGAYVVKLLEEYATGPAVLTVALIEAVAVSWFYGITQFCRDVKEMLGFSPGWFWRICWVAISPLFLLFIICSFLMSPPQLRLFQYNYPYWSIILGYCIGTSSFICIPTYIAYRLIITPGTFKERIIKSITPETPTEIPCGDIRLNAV
Sequence of D3 dopamine receptor (P35462 whole entry): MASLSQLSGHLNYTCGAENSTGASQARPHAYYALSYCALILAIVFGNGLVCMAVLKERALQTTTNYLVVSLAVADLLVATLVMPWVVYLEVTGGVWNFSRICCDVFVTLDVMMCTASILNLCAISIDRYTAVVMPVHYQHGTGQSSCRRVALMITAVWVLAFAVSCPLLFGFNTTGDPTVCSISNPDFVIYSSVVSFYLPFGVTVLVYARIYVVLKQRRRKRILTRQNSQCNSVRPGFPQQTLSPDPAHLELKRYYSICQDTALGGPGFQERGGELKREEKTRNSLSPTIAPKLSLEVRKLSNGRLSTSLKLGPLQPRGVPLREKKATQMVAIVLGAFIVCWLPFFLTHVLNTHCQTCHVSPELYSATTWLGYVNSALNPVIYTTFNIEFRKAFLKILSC

For `O=C(NCCCCN1CCN(c2ccccc2F)CC1)c1ccc(-c2ccsc2)cc1` [Compound 6a], the “DOI-dependent head twitch response” value in test [1] is “attenuated the number of head twitches”. Moreover, the “binding affinity D1 (PDSP)” value in test [2] is given as “low affinity binding”. Further, the pKi in test [3] was less than 5.82; in [4], less than 6.72; in test [5], less than 6.19; in test [6] it was less than 6.12; in test [7], 7.48; in test [8], 8.01. For the same compound, the pKi in [9] was less than 7.00; in test [10] it was 7.78; in [11], 7.57. Further, the “efficacy in β-arrestin binding assay” value in [12] is reported as “weak partial agonists”.

The values above are taken from article PMC8198181, “Evaluation of Substituted N-Phenylpiperazine Analogs as D3 vs. D2 Dopamine Receptor Subtype Selective Ligands” (Molecules, 2021).
